How the values were obtained:
Type in all cases: in vivo
[1] = tested on: giant foxtail (Setaria faberii); assay: Test A preemergence; conditions: Preemergence, 1000 g ai/ha; 0 is no effect, 100 is complete control
Method in brief: (§1)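 Treatment is preemergence as a directed soil spray after planting, or postemergence at the one- to two-leaf stage, with test chemical in a non-phytotoxic solvent mixture plus surfactant. Plants stay in the greenhouse about 10 d before visual injury scoring on a 0 to 100 scale versus untreated controls.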

Kochia (Kochia scoparia) [2] = assay: Test A preemergence; conditions: Preemergence, 1000 g ai/ha; 0 is no effect, 100 is complete control
Method in brief: as §1

[3] = tested on: ragweed (common ragweed, Ambrosia elatior); assay: Test A preemergence; conditions: Preemergence, 1000 g ai/ha; 0 is no effect, 100 is complete control
Method in brief: as §1

[4] = tested on: ryegrass, Italian (Italian ryegrass, Lolium multiflorum); assay: Test A preemergence; conditions: Preemergence, 1000 g ai/ha; 0 is no effect, 100 is complete control
Method in brief: as §1

[5] = tested on: pigweed (Amaranthus retroflexus); assay: Test A preemergence; conditions: Preemergence, 1000 g ai/ha; 0 is no effect, 100 is complete control
[6] = tested on: barnyardgrass (Echinochloa crus-galli); assay: Test A preemergence; conditions: Preemergence, 1000 g ai/ha; 0 is no effect, 100 is complete control
Method in brief: as §1

[7] = tested on: giant foxtail (Setaria faberii); assay: Test A postemergence; conditions: Setaria faberi, post-emergence, 240 h, 1000 g ai/ha, postemergence; 0 to 100 scale, 0 no effect, 100 complete control; read-out: Plant response rating, Foxtail, Giant
Method in brief: as §1

[8] = tested on: Galium (catchweed bedstraw, Galium aparine); assay: Test A postemergence; conditions: Galium, post-emergence, 240 h, 1000 g ai/ha, postemergence; 0 to 100 scale, 0 no effect, 100 complete control; read-out: Plant response rating, Galium
Method in brief: as §1

Kochia (Kochia scoparia) [9] = assay: Test A postemergence; conditions: Bassia scoparia, post-emergence, 240 h, 1000 g ai/ha, postemergence; 0 to 100 scale, 0 no effect, 100 complete control; read-out: Plant response rating, Kochia
Method in brief: as §1

[10] = tested on: ragweed (common ragweed, Ambrosia elatior); assay: Test A postemergence; conditions: Ambrosia artemisiifolia, post-emergence, 240 h, 1000 g ai/ha, postemergence; 0 to 100 scale, 0 no effect, 100 complete control; read-out: Plant response rating, Ragweed
Method in brief: as §1

[11] = tested on: wheat (Triticum aestivum); assay: Test A postemergence; conditions: Triticum aestivum, post-emergence, 240 h, 1000 g ai/ha, postemergence; 0 to 100 scale, 0 no effect, 100 complete control; read-out: Plant response rating, Wheat
Method in brief: as §1

[12] = tested on: morningglory (Ipomoea spp.); assay: Test A postemergence; conditions: Ipomoea, post-emergence, 240 h; 1000 g ai/ha, postemergence; 0 to 100 scale, 0 no effect, 100 complete control; read-out: Plant response rating, Morningglory
Method in brief: as §1

[13] = tested on: ryegrass, Italian (Italian ryegrass, Lolium multiflorum); assay: Test A postemergence; conditions: Lolium multiflorum, post-emergence, 240 h, 1000 g ai/ha, postemergence; 0 to 100 scale, 0 no effect, 100 complete control; read-out: Plant response rating, Ryegrass, Italian
Method in brief: as §1

[14] = tested on: pigweed (Amaranthus retroflexus); assay: Test A postemergence; conditions: Amaranthus retroflexus, post-emergence, 240 h, 1000 g ai/ha, postemergence; 0 to 100 scale, 0 no effect, 100 complete control; read-out: Plant response rating, Pigweed
Method in brief: as §1

corn (Zea mays) = assay: Test A postemergence; conditions: Zea mays, post-emergence, 240 h, 1000 g ai/ha, postemergence; 0 to 100 scale, 0 no effect, 100 complete control
Method in brief: as §1

[15] = tested on: barnyardgrass (Echinochloa crus-galli); assay: Test A postemergence; conditions: Echinochloa crus-galli, post-emergence, 240 h, 1000 g ai/ha, postemergence; 0 to 100 scale, 0 no effect, 100 complete control; read-out: Plant response rating, Barnyardgrass
Method in brief: as §1

[16] = tested on: blackgrass (Alopecurus myosuroides); assay: Test A postemergence; conditions: Alopecurus myosuroides, post-emergence, 240 h, 1000 g ai/ha, postemergence; 0 to 100 scale, 0 no effect, 100 complete control; read-out: Plant response rating, Blackgrass
Method in brief: as §1

SMILES: O=C(CN1C[C@H](c2cc(F)cc(F)c2)[C@@H](C(=O)Nc2cccc(F)c2F)C1=O)c1ccccc1 [Compound 784]
- Foxtail, Giant plant response rating (0 to 100 scale) [1]: 90
- Kochia plant response rating (0 to 100 scale) (Kochia (Kochia scoparia) [2]): 0
- Ragweed plant response rating (0 to 100 scale) [3]: 0
- Ryegrass, Italian plant response rating (0 to 100 scale) [4]: 0
- Pigweed plant response rating (0 to 100 scale) [5]: 0
- Barnyardgrass plant response rating (0 to 100 scale) [6]: 80
- pest or weed control at 1000 g/ha [7]: 90%
- pest or weed control at 1000 g/ha [8]: 0%
- pest or weed control at 1000 g/ha (Kochia (Kochia scoparia) [9]): 0%
- pest or weed control at 1000 g/ha [10]: 0%
- plant injury at 1000 g/ha [11]: 0%
- pest or weed control at 1000 g/ha [12]: 0%
- pest or weed control at 1000 g/ha [13]: 0%
- pest or weed control at 1000 g/ha [14]: 0%
- Corn plant response rating (crop injury, 0 = no effect, 100 = complete kill) at 1000 g/ha (corn (Zea mays)): 0%
- pest or weed control at 1000 g/ha [15]: 90%
- pest or weed control at 1000 g/ha [16]: 20%
